According to patent US20130281465A1, “PYRAZOLE DERIVATIVE” (TAISHO PHARMACEUTICAL CO., LTD., priority 2010, published 2013):

Assays:
[1] = target: T1, human orexin type 1 receptor (hOX1R) (Homo sapiens, UniProt O43613); assay: Orexin receptor antagonistic activity, intracellular Ca2+ fluorescence (FDSS) in CHO cells expressing hOX1R; type: cell-based; conditions: CHO cells forced to express hOX1R; orexin-A analogue peptide ligand 300 pM; Fluo-4 maximum fluorescence; read-out: IC50 value OX1R
T1 construct: expressed in transfected cells; host or cells: Chinese hamster ovary (CHO) cells
T1 sequence (O43613 1-425): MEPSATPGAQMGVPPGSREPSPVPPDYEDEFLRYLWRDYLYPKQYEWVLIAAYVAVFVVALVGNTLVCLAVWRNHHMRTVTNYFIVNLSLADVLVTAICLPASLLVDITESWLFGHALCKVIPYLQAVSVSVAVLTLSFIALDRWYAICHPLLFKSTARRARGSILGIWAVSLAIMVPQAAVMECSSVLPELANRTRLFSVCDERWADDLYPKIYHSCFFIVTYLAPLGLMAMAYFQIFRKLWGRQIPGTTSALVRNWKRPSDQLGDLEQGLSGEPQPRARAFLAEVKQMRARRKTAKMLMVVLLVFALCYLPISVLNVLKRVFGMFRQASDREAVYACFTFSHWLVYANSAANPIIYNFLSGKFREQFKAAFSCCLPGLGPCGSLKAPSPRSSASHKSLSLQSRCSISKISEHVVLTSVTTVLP
Description: (§1) The antagonistic activity of each test compound against human orexin type 1 receptor (hOX1R) and orexin type 2 receptor (hOX2R) was performed as described in the literature with a modification (Toshikatsu Okumura et al., Biochemical and Biophysical Research Communications 280, 976-981, 2001). Chinese hamster ovary (CHO) cells forced to express hOX1R or hOX2R were seeded at 20,000 cells/well on a 96 well Black clear bottom plates (Nunc) and cultured for 16 hours under conditions of 37° C. and 5% CO2 using a Ham's F-12 medium containing 0.1 mM MEM non-essential amino acids, 0.5 mg/ml G418, and 10% fetal bovine serum (all from Invitrogen Corp.). After removal of the medium, 100 μL of the assay buffer (25 mM HEPES (Dojindo Laboratories), Hanks' balanced salt solution (Invitrogen Corp.), 0.1% bovine serum albumin, 2.5 mM probenecid, 200 μg/ml Amaranth (all from Sigma-Aldrich Corp.), pH 7.4) containing 0.5 μM Fluo-4AM ester (Dojindo Laboratories) was added thereto, and the cells were incubated for 60 minutes under conditions of 37° C. and 5% CO2. After removal of the buffer solution for assay containing Fluo-4AM ester, the test compound was dissolved at a concentration of 10 mM in dimethyl sulfoxide and diluted with the assay buffer, and 150 μL of the diluted solution was then added to each wells, which were then incubated for 30 minutes.
(§2) A peptide (Pyr-[…]11e-Leu-Thr-Leu-NH2; Peptide Institute, Inc.) substituted 2 amino acids of human orexin-A was diluted with the assay buffer to 300 pM (final concentration for hOX1R) or 3 nM (final concentration for hOX2R). 50 μL of this ligand solution was added thereto to start reaction. During the reaction, the fluorescence value of each well was measured every one second for 3 minutes using Functional Drug Screening System (FDSS; manufactured by Hamamatsu Photonics K.K.), and antagonistic activity was determined with the maximum fluorescence value as an index for intracellular Ca^2+ concentration. The antagonistic activity of the test compound was calculated with the fluorescence value of a well supplemented with only a dilution buffer solution as 100% and the fluorescence value of a well supplemented with a buffer solution containing neither the ligand nor the compound as 0%, and determined in terms of 50% inhibitory concentration (IC50 value) from fluorescence values derived from the test compound added at varying concentrations.

[2] = target: T2, orexin type 2 receptor (hOX2R) (Homo sapiens, UniProt O43614); assay: Orexin receptor antagonistic activity, intracellular Ca2+ fluorescence (FDSS) in CHO cells expressing hOX2R; type: cell-based; conditions: CHO cells forced to express hOX2R; orexin-A analogue peptide ligand 3 nM; Fluo-4 maximum fluorescence; read-out: IC50 value OX2R
T2 construct: expressed in transfected cells; host or cells: Chinese hamster ovary (CHO) cells
T2 sequence (O43614 1-444): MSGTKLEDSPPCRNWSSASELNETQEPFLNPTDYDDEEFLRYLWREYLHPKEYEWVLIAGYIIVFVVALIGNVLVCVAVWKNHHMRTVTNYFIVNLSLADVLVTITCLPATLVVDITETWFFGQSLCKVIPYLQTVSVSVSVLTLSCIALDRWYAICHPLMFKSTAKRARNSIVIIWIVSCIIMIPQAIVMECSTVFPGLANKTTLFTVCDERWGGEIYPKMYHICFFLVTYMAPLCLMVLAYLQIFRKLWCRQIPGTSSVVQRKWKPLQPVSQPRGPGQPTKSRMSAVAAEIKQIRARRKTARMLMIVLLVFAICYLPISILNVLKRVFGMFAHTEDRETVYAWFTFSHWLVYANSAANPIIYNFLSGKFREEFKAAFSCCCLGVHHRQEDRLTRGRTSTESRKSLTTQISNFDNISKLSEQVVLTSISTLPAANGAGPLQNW
Description: as §1, §2

Cc1ccc(-n2nccn2)c(C(=O)NCCn2cc(-c3ccc(F)cn3)cn2)c1 [Example 1, N-{2-[4-(5-fluoropyridin-2-yl)-1H-pyrazol-1-yl]ethyl}-5-methyl-2-(2H-1,2,3-triazol-2-yl)benzamide]
IC50 [1]: 1040 nM
IC50 [2]: 2390 nM

Cc1ccc(-n2nccn2)c(C(=O)N(C)CCn2cc(-c3ccc(F)cn3)cn2)c1 [Example 2, N-{2-[4-(5-fluoropyridin-2-yl)-1H-pyrazol-1-yl]ethyl}-N,5-dimethyl-2-(2H-1,2,3-triazol-2-yl)benzamide]
IC50 [1]: 17.9 nM
IC50 [2]: 47.3 nM

Cc1ccc(-n2nccn2)c(C(=O)N(C)CCn2cc(-c3ccc(F)cc3)cn2)c1 [Example 3-2, N-{2-[4-(4-fluorophenyl)-1H-pyrazol-1-yl]ethyl}-N,5-dimethyl-2-(2H-1,2,3-triazol-2-yl)benzamide]
IC50 [1]: 2.2 nM
IC50 [2]: 7.1 nM

CCN(CCn1cc(-c2ccc(F)cn2)cn1)C(=O)c1cc(C)ccc1-n1nccn1 [Example 4, N-ethyl-N-{2-[4-(5-fluoropyridin-2-yl)-1H-pyrazol-1-yl]ethyl}-5-methyl-2-(2H-1,2,3-triazol-2-yl)benzamide]
IC50 [1]: 6 nM
IC50 [2]: 14.6 nM

Cc1ccc(-n2nccn2)c(C(=O)N(CCn2cc(-c3ccc(F)cn3)cn2)CC2CC2)c1 [Example 5, N-(cyclopropylmethyl)-N-{2-[4-(5-fluoropyridin-2-yl)-1H-pyrazol-1-yl]ethyl}-5-methyl-2-(2H-1,2,3-triazol-2-yl)benzamide]
IC50 [1]: 102 nM
IC50 [2]: 38.7 nM

Cc1ccc(-n2nccn2)c(C(=O)N(CCn2cc(-c3ccc(F)cc3)cn2)CC2CC2)c1 [Example 6, N-(cyclopropylmethyl)-N-{2-[4-(4-fluorophenyl)-1H-pyrazol-1-yl]ethyl}-5-methyl-2-(2H-1,2,3-triazol-2-yl)benzamide]
IC50 [1]: 50.1 nM
IC50 [2]: 2.6 nM

CCN(CCn1cc(-c2ccc(F)cc2)cn1)C(=O)c1cc(C)ccc1-n1nccn1 [Example 7, N-ethyl-N-{2-[4-(4-fluorophenyl)-1H-pyrazol-1-yl]ethyl}-5-methyl-2-(2H-1,2,3-triazol-2-yl)benzamide]
IC50 [1]: 2.3 nM
IC50 [2]: 6.3 nM

CCN(CCn1ccc(-c2ccc(F)cc2)n1)C(=O)c1cc(C)ccc1-n1nccn1 [Example 8, N-ethyl-N-{2-[3-(4-fluorophenyl)-1H-pyrazol-1-yl]ethyl}-5-methyl-2-(2H-1,2,3-triazol-2-yl)benzamide]
IC50 [1]: 0.9 nM
IC50 [2]: 2.5 nM

CCN(CCn1ccc(-c2ccccn2)n1)C(=O)c1cc(C)ccc1-n1nccn1 [Example 9, N-ethyl-5-methyl-N-{2-[3-(pyridin-2-yl)-1H-pyrazol-1-yl]ethyl}-2-(2H-1,2,3-triazol-2-yl)benzamide]
IC50 [1]: 1 nM
IC50 [2]: 4.3 nM

CCN(CCn1cc(-c2ccc(Cl)cn2)cn1)C(=O)c1cc(C)ccc1-n1nccn1 [Example 10, N-{2-[4-(5-chloropyridin-2-yl)-1H-pyrazol-1-yl]ethyl}-N-ethyl-5-methyl-2-(2H-1,2,3-triazol-2-yl)benzamide]
IC50 [1]: 14.4 nM
IC50 [2]: 52.6 nM

CCN(CCn1cc(-c2ccccn2)cn1)C(=O)c1cc(C)ccc1-n1nccn1 [Example 11, N-ethyl-5-methyl-N-{2-[4-(pyridin-2-yl)-1H-pyrazol-1-yl]ethyl}-2-(2H-1,2,3-triazol-2-yl)benzamide]
IC50 [1]: 10.5 nM
IC50 [2]: 17.2 nM

CCN(CCn1cc(-c2cccc(C)n2)cn1)C(=O)c1cc(C)ccc1-n1nccn1 [Example 12, N-ethyl-N-{2-[4-(6-methylpyridin-2-yl)-1H-pyrazol-1-yl]ethyl}-5-methyl-2-(2H-1,2,3-triazol-2-yl)benzamide]
IC50 [1]: 1.8 nM
IC50 [2]: 22.7 nM

Cc1ccc(-n2nccn2)c(C(=O)N(CCn2cc(-c3ccc(F)cn3)cn2)C2CC2)c1 [Example 13, N-cyclopropyl-N-{2-[4-(5-fluoropyridin-2-yl)-1H-pyrazol-1-yl]ethyl}-5-methyl-2-(2H-1,2,3-triazol-2-yl)benzamide]
IC50 [1]: 9.8 nM
IC50 [2]: 15.4 nM

Cc1ccc(-n2nccn2)c(C(=O)N(CCn2cc(-c3ccc(F)cn3)cn2)C(C)C)c1 [Example 14, N-{2-[4-(5-fluoropyridin-2-yl)-1H-pyrazol-1-yl]ethyl}-5-methyl-N-(propan-2-yl)-2-(2H-1,2,3-triazol-2-yl)benzamide]
IC50 [1]: 597 nM
IC50 [2]: 412 nM

CCN(CCn1cc(-c2ccc(F)cn2)cn1)C(=O)c1cc(C)ccc1-c1ncccn1 [Example 15, N-ethyl-N-{2-[4-(5-fluoropyridin-2-yl)-1H-pyrazol-1-yl]ethyl}-5-methyl-2-(pyrimidin-2-yl)benzamide]
IC50 [1]: 29.8 nM
IC50 [2]: 88.3 nM

Cc1ccc(-n2nccn2)c(C(=O)NCCn2ccc(-c3ccc(F)cn3)n2)c1 [Example 16, N-{2-[3-(5-fluoropyridin-2-yl)-1H-pyrazol-1-yl]ethyl}-5-methyl-2-(2H-1,2,3-triazol-2-yl)benzamide]
IC50 [1]: 115 nM
IC50 [2]: 598 nM

Cc1ccc(-n2nccn2)c(C(=O)N(C)CCn2ccc(-c3ccc(F)cn3)n2)c1 [Example 17, N-{2-[3-(5-fluoropyridin-2-yl)-1H-pyrazol-1-yl]ethyl}-N,5-dimethyl-2-(2H-1,2,3-triazol-2-yl)benzamide]
IC50 [1]: 5.6 nM
IC50 [2]: 22.8 nM

Cc1ccc(-n2nccn2)c(C(=O)N(CCn2ccc(-c3ccc(F)cn3)n2)CC2CC2)c1 [Example 18, N-(cyclopropylmethyl)-N-{2-[3-(5-fluoropyridin-2-yl)-1H-pyrazol-1-yl]ethyl}-5-methyl-2-(2H-1,2,3-triazol-2-yl)benzamide]
IC50 [1]: 6.8 nM
IC50 [2]: 2.2 nM

CCN(CCn1ccc(-c2ccc(F)cn2)n1)C(=O)c1cc(C)ccc1-n1nccn1 [Example 19, N-ethyl-N-{2-[3-(5-fluoropyridin-2-yl)-1H-pyrazol-1-yl]ethyl}-5-methyl-2-(2H-1,2,3-triazol-2-yl)benzamide]
IC50 [1]: 1.5 nM
IC50 [2]: 3.9 nM

Cc1ccc(-n2nccn2)c(C(=O)N(C)CCn2ccc(-c3ccc(F)cc3)n2)c1 [Example 20-2, N-{2-[3-(4-fluorophenyl)-1H-pyrazol-1-yl]ethyl}-N,5-dimethyl-2-(2H-1,2,3-triazol-2-yl)benzamide]
IC50 [1]: 0.9 nM
IC50 [2]: 8.8 nM

Cc1ccc(-n2nccn2)c(C(=O)N(CCF)CCn2ccc(-c3ccc(F)cn3)n2)c1 [Example 21, N-{2-[3-(5-fluoropyridin-2-yl)-1H-pyrazol-1-yl]ethyl}-5-methyl-N-(2-fluoroethyl)-2-(2H-1,2,3-triazol-2-yl)benzamide]
IC50 [1]: 3.7 nM
IC50 [2]: 20.3 nM

Cc1ccc(-n2nccn2)c(C(=O)N(CCn2ccc(-c3ccc(F)cn3)n2)CC(F)F)c1 [Example 22, N-(2,2-difluoroethyl)-N-{2-[3-(5-fluoropyridin-2-yl)-1H-pyrazol-1-yl]ethyl}-5-methyl-2-(2H-1,2,3-triazol-2-yl)benzamide]
IC50 [1]: 10.5 nM
IC50 [2]: 32.5 nM

CN(CCn1ccc(-c2ccc(F)cn2)n1)C(=O)c1cc(F)ccc1-n1nccn1 [Example 23-2, N-methyl-N-{2-[3-(5-fluoropyridin-2-yl)-1H-pyrazol-1-yl]ethyl}-5-fluoro-2-(2H-1,2,3-triazol-2-yl)benzamide]
IC50 [1]: 76 nM
IC50 [2]: 132 nM
